We go through twelve compounds from ChEMBL document CHEMBL1127941, “Norleucine as a replacement for methionine in phosphatase-resistant linear and cyclic peptides which bind to p85 SH2 domains” (Bioorg Med Chem Lett, 1994).

Numbered stars: 1 amine (or outer) side, 2 acyl side, 3 side chain; on linkers, the order of the positions; unused ones are H or OH. Square brackets hold non-standard residues; d marks the D form. Peptide text beside a SMILES is read from it. X2 = O=C([C@@H](Cc1ccc(C(F)(F)OP(=O)(O)O)cc1)N[*:1])[*:2]; X1 = O=C([C@H](Cc1ccc(C(F)(F)OP(=O)(O)O)cc1)N[*:1])[*:2]; Pmp = N[C@@H](Cc1ccc(CP(=O)(O)O)cc1)C(=O)O; pY = N[C@@H](Cc1ccc(OP(=O)(O)O)cc1)C(=O)O; Nle = CCCC[C@H](N)C(=O)O

The test can be described thus: Binding affinity to Phosphatidylinositol 3-kinase C-terminal p85 SH2 domain.
On to `CCCC[C@@H]1NC(=O)[C@H]2CCCN2C(=O)[C@H](C(C)C)NC(=O)[C@@H](Cc2ccc(OP(=O)(O)O)cc2)NC(=O)CNC(=O)[C@@H](CC(C)C)NC1=O`, for which the ID50 was 15.6 µM. `CSCC[C@@H]1NC(=O)[C@H]2CCCN2C(=O)[C@H](C(C)C)NC(=O)[C@@H](Cc2ccc(COP(=O)(O)O)cc2)NC(=O)CNC(=O)[C@@H](CC(C)C)NC1=O` came in with an ID50 of 5.2 µM. `CSCC[C@@H]1NC(=O)[C@H]2CCCN2C(=O)[C@H](C(C)C)NC(=O)[C@@H](Cc2ccc(OP(=O)(O)O)cc2)NC(=O)CNC(=O)[C@@H](CC(C)C)NC1=O` registered an ID50 of 1.01 µM. As for `CSCC[C@H](NC(=O)[C@@H]1CCCN1C(=O)[C@@H](NC(=O)[C@H](Cc1ccc(CP(=O)(O)O)cc1)NC(=O)CN)C(C)C)C(=O)N[C@@H](CC(C)C)C(=O)O` (H-G[Pmp]VPML-OH), the figure is 0.98 µM. As for `CCCC[C@H](NC(=O)[C@@H]1CCCN1C(=O)[C@@H](NC(=O)[C@H](Cc1ccc(CP(=O)(O)O)cc1)NC(=O)CN)C(C)C)C(=O)N[C@@H](CC(C)C)C(=O)O` (H-G[Pmp]VP[Nle]L-OH), the figure is 1.6 µM; as for `CSCC[C@H](NC(=O)[C@@H]1CCCN1C(=O)[C@@H](NC(=O)[C@H](Cc1ccc(OP(=O)(O)O)cc1)NC(=O)CN)C(C)C)C(=O)N[C@@H](CC(C)C)C(=O)O` (H-G[pY]VPML-OH), 0.17 µM. In turn, `CSCC[C@@H]1NC(=O)[C@@H]2CCCN2C(=O)[C@H](C(C)C)NC(=O)[C@H](Cc2ccc(C(F)(F)OP(=O)(O)O)cc2)NC(=O)CNC(=O)[C@H](CC(C)C)NC1=O` (cyclo(G[X1]VPML)) registered an ID50 of 2.24 µM.

Compound `CCCC[C@@H]1NC(=O)[C@@H]2CCCN2C(=O)[C@H](C(C)C)NC(=O)[C@H](Cc2ccc(C(F)(F)OP(=O)(O)O)cc2)NC(=O)CNC(=O)[C@H](CC(C)C)NC1=O` (cyclo(G[X1]VP[Nle]L)) gave an ID50 of 8.9 µM. In the case of `CSCC[C@@H]1NC(=O)[C@@H]2CCCN2C(=O)[C@H](C(C)C)NC(=O)[C@@H](Cc2ccc(C(F)(F)OP(=O)(O)O)cc2)NC(=O)CNC(=O)[C@H](CC(C)C)NC1=O` (cyclo(G[X2]VPML)) it was 32.4 µM.

Compound `CCCC[C@@H]1NC(=O)[C@@H]2CCCN2C(=O)[C@H](C(C)C)NC(=O)[C@@H](Cc2ccc(C(F)(F)OP(=O)(O)O)cc2)NC(=O)CNC(=O)[C@H](CC(C)C)NC1=O` (cyclo(G[X2]VP[Nle]L)) displayed an ID50 of 59.1 µM.

In the case of `CCCC[C@H](NC(=O)[C@@H]1CCCN1C(=O)[C@@H](NC(=O)C(Cc1ccc(CP(=O)(O)O)cc1)NC(=O)CN)C(C)C)C(=O)N[C@@H](CC(C)C)C(=O)O` (single isomer, unassigned), the ID50 was 109 µM. For `CSCC[C@H](NC(=O)[C@@H]1CCCN1C(=O)[C@@H](NC(=O)C(Cc1ccc(CP(=O)(O)O)cc1)NC(=O)CN)C(C)C)C(=O)N[C@@H](CC(C)C)C(=O)O` (single isomer, unassigned), the ID50 came to 29.4 µM.
